PubChem BioAssay (NCI)
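Exposure lasted 48 hours, with cells grown in 96-well plates and compounds tested at five concentrations. Definition used: TGI = concentration required for complete inhibition of growth.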

Experiments:
Test in all cases: NCI tumour cell line growth inhibition, 48 h
786-0 renal = system: 786-0 renal
A498 renal = system: A498 renal
A549 NSCLC = system: A549 NSCLC
ACHN renal = system: ACHN renal
CAKI-1 renal = system: CAKI-1 renal
CCRF-CEM leukemia = system: CCRF-CEM leukemia
COLO 205 colon = system: COLO 205 colon
DLD-1 colon = system: DLD-1 colon
DMS 114 small cell lung = system: DMS 114 small cell lung
DMS 273 small cell lung = system: DMS 273 small cell lung
EKVX NSCLC = system: EKVX NSCLC
HCC-2998 colon = system: HCC-2998 colon
HCT-116 colon = system: HCT-116 colon
HCT-15 colon = system: HCT-15 colon
HL-60(TB) leukemia = system: HL-60(TB) leukemia
HOP-18 NSCLC = system: HOP-18 NSCLC
HOP-62 NSCLC = system: HOP-62 NSCLC
HOP-92 NSCLC = system: HOP-92 NSCLC
HT29 colon = system: HT29 colon
IGROV1 ovarian = system: IGROV1 ovarian
K-562 leukemia = system: K-562 leukemia
KM12 colon = system: KM12 colon
KM20L2 colon = system: KM20L2 colon
LOX IMVI melanoma = system: LOX IMVI melanoma
LXFL 529 NSCLC = system: LXFL 529 NSCLC
M14 melanoma = system: M14 melanoma
M19-MEL melanoma = system: M19-MEL melanoma
MALME-3M melanoma = system: MALME-3M melanoma
MCF7 breast = system: MCF7 breast
MOLT-4 leukemia = system: MOLT-4 leukemia
NCI-H226 lung = system: NCI-H226 lung
NCI-H23 lung = system: NCI-H23 lung
NCI-H460 lung = system: NCI-H460 lung
NCI-H522 lung = system: NCI-H522 lung
NCI/ADR-RES ovarian = system: NCI/ADR-RES ovarian
OVCAR-3 ovarian = system: OVCAR-3 ovarian
OVCAR-4 ovarian = system: OVCAR-4 ovarian
OVCAR-5 ovarian = system: OVCAR-5 ovarian
OVCAR-8 ovarian = system: OVCAR-8 ovarian
P388 leukemia = system: P388 leukemia
P388/ADR leukemia = system: P388/ADR leukemia
RPMI-8226 leukemia = system: RPMI-8226 leukemia
RXF 393 renal = system: RXF 393 renal
RXF-631 renal = system: RXF-631 renal
SF-268 CNS = system: SF-268 CNS
SF-295 CNS = system: SF-295 CNS
SF-539 CNS = system: SF-539 CNS
SK-MEL-2 melanoma = system: SK-MEL-2 melanoma
SK-MEL-28 melanoma = system: SK-MEL-28 melanoma
SK-MEL-5 melanoma = system: SK-MEL-5 melanoma
SK-OV-3 ovarian = system: SK-OV-3 ovarian
SN12C renal = system: SN12C renal
SN12K1 renal = system: SN12K1 renal
SNB-19 CNS = system: SNB-19 CNS
SNB-75 CNS = system: SNB-75 CNS
SNB-78 CNS = system: SNB-78 CNS
SW-620 colon = system: SW-620 colon
TK-10 renal = system: TK-10 renal
U251 CNS = system: U251 CNS
UACC-257 melanoma = system: UACC-257 melanoma
UACC-62 melanoma = system: UACC-62 melanoma
UO-31 renal = system: UO-31 renal
XF 498 CNS = system: XF 498 CNS
SR leukemia = system: SR leukemia

CCN(CCCl)CCNc1c2ccccc2nc2ccc(OC)cc12
TGI (786-0 renal): 1.84 µM | TGI (A498 renal): 6.64 µM | TGI (A549 NSCLC): 7.11 µM | TGI (ACHN renal): 1.66 µM | TGI (CAKI-1 renal): 4.23 µM | TGI (CCRF-CEM leukemia): 2.41 µM | TGI (COLO 205 colon): 1.82 µM | TGI (DLD-1 colon): 3.46 µM | TGI (DMS 114 small cell lung): 2.35 µM | TGI (DMS 273 small cell lung): 2.02 µM | TGI (EKVX NSCLC): 3.49 µM | TGI (HCC-2998 colon): 2.15 µM | TGI (HCT-116 colon): 2.1 µM | TGI (HCT-15 colon): 3.39 µM | TGI (HL-60(TB) leukemia): 3.91 µM | TGI (HOP-18 NSCLC): 8.02 µM | TGI (HOP-62 NSCLC): 3.85 µM | TGI (HOP-92 NSCLC): 2.43 µM | TGI (HT29 colon): 2.13 µM | TGI (IGROV1 ovarian): 2.86 µM | TGI (K-562 leukemia): 2.51 µM | TGI (KM12 colon): 3.11 µM | TGI (KM20L2 colon): 3.45 µM | TGI (LOX IMVI melanoma): 2.14 µM | TGI (LXFL 529 NSCLC): 1.87 µM | TGI (M14 melanoma): 2.45 µM | TGI (M19-MEL melanoma): 2.24 µM | TGI (MALME-3M melanoma): 2.31 µM | TGI (MCF7 breast): 3.55 µM | TGI (MOLT-4 leukemia): 0.341 µM | TGI (NCI-H226 lung): 2.42 µM | TGI (NCI-H23 lung): 2.12 µM | TGI (NCI-H460 lung): 2.2 µM | TGI (NCI-H522 lung): 1.71 µM | TGI (NCI/ADR-RES ovarian): 12.8 µM | TGI (OVCAR-3 ovarian): 4.71 µM | TGI (OVCAR-4 ovarian): 3.24 µM | TGI (OVCAR-5 ovarian): 4.04 µM | TGI (OVCAR-8 ovarian): 2.26 µM | TGI (P388 leukemia): 0.58 µM | TGI (P388/ADR leukemia): 2.29 µM | TGI (RPMI-8226 leukemia): 1.37 µM | TGI (RXF 393 renal): 1.97 µM | TGI (RXF-631 renal): 4.4 µM | TGI (SF-268 CNS): 2.59 µM | TGI (SF-295 CNS): 4 µM | TGI (SF-539 CNS): 2.34 µM | TGI (SK-MEL-2 melanoma): 2.52 µM | TGI (SK-MEL-28 melanoma): 3.67 µM | TGI (SK-MEL-5 melanoma): 2.6 µM | TGI (SK-OV-3 ovarian): 3.81 µM | TGI (SN12C renal): 2.85 µM | TGI (SN12K1 renal): 3.08 µM | TGI (SNB-19 CNS): 8.62 µM | TGI (SNB-75 CNS): 3.27 µM | TGI (SNB-78 CNS): 4.68 µM | TGI (SW-620 colon): 2.04 µM | TGI (TK-10 renal): 5.82 µM | TGI (U251 CNS): 4.78 µM | TGI (UACC-257 melanoma): 3.73 µM | TGI (UACC-62 melanoma): 1.94 µM | TGI (UO-31 renal): 3.98 µM | TGI (XF 498 CNS): 2.43 µM

CC(=O)OC1COC(N2C(=O)C(=O)c3cc(Br)c([N+](=O)[O-])cc32)C(OC(C)=O)C1OC(C)=O (stereo not given)
TGI (786-0 renal): > 100 µM | TGI (A549 NSCLC): > 100 µM | TGI (ACHN renal): > 100 µM | TGI (CAKI-1 renal): > 100 µM | TGI (CCRF-CEM leukemia): 89.2 µM | TGI (COLO 205 colon): > 100 µM | TGI (DLD-1 colon): > 100 µM | TGI (DMS 114 small cell lung): 65.8 µM | TGI (DMS 273 small cell lung): > 100 µM | TGI (EKVX NSCLC): > 100 µM | TGI (HCC-2998 colon): > 100 µM | TGI (HCT-116 colon): > 100 µM | TGI (HCT-15 colon): > 100 µM | TGI (HL-60(TB) leukemia): > 100 µM | TGI (HOP-18 NSCLC): > 100 µM | TGI (HOP-62 NSCLC): > 100 µM | TGI (HOP-92 NSCLC): 93.3 µM | TGI (HT29 colon): > 100 µM | TGI (IGROV1 ovarian): > 100 µM | TGI (K-562 leukemia): 72.4 µM | TGI (KM12 colon): > 100 µM | TGI (KM20L2 colon): > 100 µM | TGI (LOX IMVI melanoma): 99 µM | TGI (LXFL 529 NSCLC): > 100 µM | TGI (M14 melanoma): > 100 µM | TGI (M19-MEL melanoma): 62.5 µM | TGI (MALME-3M melanoma): > 100 µM | TGI (MOLT-4 leukemia): 88.5 µM | TGI (NCI-H226 lung): > 100 µM | TGI (NCI-H23 lung): > 100 µM | TGI (NCI-H460 lung): > 100 µM | TGI (NCI-H522 lung): > 100 µM | TGI (OVCAR-3 ovarian): > 100 µM | TGI (OVCAR-4 ovarian): > 100 µM | TGI (OVCAR-5 ovarian): > 100 µM | TGI (OVCAR-8 ovarian): > 100 µM | TGI (RPMI-8226 leukemia): > 100 µM | TGI (RXF 393 renal): 82.3 µM | TGI (RXF-631 renal): > 100 µM | TGI (SF-268 CNS): > 100 µM | TGI (SF-295 CNS): > 100 µM | TGI (SF-539 CNS): > 100 µM | TGI (SK-MEL-2 melanoma): > 100 µM | TGI (SK-MEL-28 melanoma): > 100 µM | TGI (SK-MEL-5 melanoma): > 100 µM | TGI (SK-OV-3 ovarian): > 100 µM | TGI (SN12C renal): > 100 µM | TGI (SNB-19 CNS): > 100 µM | TGI (SNB-75 CNS): 81.4 µM | TGI (SNB-78 CNS): > 100 µM | TGI (SR leukemia): > 100 µM | TGI (SW-620 colon): > 100 µM | TGI (TK-10 renal): > 100 µM | TGI (U251 CNS): > 100 µM | TGI (UACC-257 melanoma): > 100 µM | TGI (UACC-62 melanoma): > 100 µM | TGI (XF 498 CNS): > 100 µM
